Experimental findings from ChEMBL document CHEMBL1132738, “Carbohydrate-modulated DNA photocleavage: design, synthesis, and evaluation of novel glycosyl anthraquinones” (Bioorg Med Chem Lett, 2000) are described below.

pIC50: −log10 of the molar value.

In assay [1] the test system is HeLa. Nature of the assay: The compound was evaluated for its inhibitory activity against HeLa S3 cells in the absence of photoirradiation. The settings on record: Homo sapiens, light or radiation study. The class given is functional, cell-based.
The subject of assay [2] is HeLa. Nature of the assay: The compound was evaluated for its inhibitory activity against HeLa S3 cells in the presence of photoirradiation. To be noted: Homo sapiens, light or radiation study. The class given is functional, cell-based.

As to `C[C@@H]1O[C@@H](OCc2ccc3c(c2O)C(=O)c2ccccc2C3=O)C[C@@H](N(C)C)[C@@H]1O`, the pIC50 is 5.06 in the assay on HeLa [1] and 5.72 in the assay on HeLa [2].

As to `C[C@@H]1O[C@H](OCc2ccc3c(c2O)C(=O)c2ccccc2C3=O)C[C@@H](N(C)C)[C@@H]1O`, the pIC50 in the assay with HeLa [1] is 4.89; in the assay with HeLa [2] it was 5.37.

Take `CC1OC(c2ccc3c(c2O)C(=O)c2ccccc2C3=O)CC(N(C)C)C1O` (stereo unspecified): the pIC50 in the assay on HeLa [1] was 5.05; in the assay with HeLa [2] it was 5.32.

As a reminder, the pIC50 is the IC50 on a negative log10 scale, so that one unit is a factor of ten.
